The conditions of data set [1]: cited from earlier work; for Latent Heat @ Boiling Point: at boiling point.
A short description of data set [2]: Particle size distribution by laser diffraction. The data set is classed as physicochemical. An excerpt:
When referred to herein, the term “optical diameter” indicates the size of a particle as measured by the Fraunhofer diffraction mode using a laser diffraction particle size analyzer equipped with a dry powder dispenser (e.g., Sympatec GmbH, Clasthal-Zellerfeld, Germany).
Suspending particles were manufactured by spray drying an emulsion of PFOB (perfluorooctyl bromide) and water stabilized by DSPC (1,2-Distearoyl-sn-Glycero-3-Phosphocholine). Detailed preparation procedures have been documented previously. The particle size distribution of the suspending particles was determined by laser diffraction.
Active agent particles formed of budesonide, 16,17-(butylidenebis(oxy))-11,21-dihydroxy-, (11-β,16-α)-pregna-1,4-diene-3,20-dione, were formed by micronizing budesonide using a jet mill. The particle size distribution of the budesonide (BD) was determined by laser diffraction.

The nature of data set [3]: Aerodynamic particle size distribution by NGI (FPF, FPD, MMAD) of HFC-152a co-suspension MDIs. The data set is classed as physicochemical. An excerpt:
(§1) In the context of a composition containing or providing respirable aggregates, particles, drops, etc., such as compositions described herein, the term “fine particle dose” or “FPD” refers to the dose, either in total mass or fraction of the nominal dose or metered dose, that is within a respirable range. The dose that is within the respirable range in measured in vitro to be the sum of the dose delivered at stages 3 through Micro Orifice Collector in a Next Generation Impactor operated at a flow rate of 30 l/min.
(§2) In the context of a composition containing or providing respirable aggregates, particles, drops, etc., such as compositions described herein, the term “fine particle fraction” or “FPF” refers to the proportion of the delivered material relative to the delivered dose (i.e. the amount that exits the actuator of a delivery device, such as an MDI) that is within a respirable range. The amount of delivered material within the respirable range is measured in vitro as the sum of the material delivered at stages 3 through Micro Orifice Collector in a Next Generation Impactor operated at a flow rate of 30 l/min.
The mixture is agitated to facilitate powder wetting and then transferred to a pressure vessel where the suspension is mixed. Valves comprised of 50 uL metering chambers (BK357, Bespak, King's Lynn, UK) are crimped onto fluorinated ethylene polymer (FEP) coated aluminum cans (Presspart, Blackburn, UK) and the suspension is then pressure filled through the valve.
Metered dose inhalers containing a triple co-suspension composition comprising glycopyrrolate, budesonide, and formoterol active agent particles were prepared, with each type of active agent particle being provided as a micronized, crystalline API material.

A short description of data set [4]: Aerodynamic particle size distribution by NGI after storage of the MDI (stability). The settings on record: active in BGF-152a. The data set is classed as physicochemical.
Description: as §1, §2
The fine particle fraction (FPF) present in the delivered dose upon actuation of an MDI containing budesonide, formoterol, or glycopyrrolate active agent particles and phospholipid particles was measured following storage of the MDI under various temperature and relative humidity conditions for varied periods of time. […]

Where [5] appears, read: active in BGF-152a MDI, Example 2.

Counter-ions that a name gives are not always drawn. Like-named read-outs stand apart in the source and are kept apart here.

For `FC(C(F)(F)F)C(F)(F)F` [HFA-227ea, 1,1,1,2,3,3,3-Heptafluoropropane], in data set [1], the “Liquid Density @ 20° C.” value is recorded as 1.41 g/mL, the “Liquid Viscosity @ 20° C.” value was 0.267 mPa · S, the “Surface Tension @ 20° C.” value was 7.50 mN/m and the “Vapor Pressure @ 20° C.” value was 390 kPa. For the same compound, in data set [1], the “Latent Heat @ 25° C.” value was 110.97 kJ/kg and the “Latent Heat @ Boiling Point” value is on record as 131.4 kJ/kg. Moreover, the “Water Solubility in Propellant” value in data set [1] (@25) is reported as 610@25 ppm.
With `CC(C)(C)NCC(O)c1ccc(O)c(CO)c1` (stereo not drawn) [AB, α1 [(tert-butylamino)methyl]-4-hydroxy-m xylene-α,α′-diol sulfate], in data set [2], the “Optical diameter / size of 50% by volume of the particles (smaller than)” value was “smaller than 1.5 μm” and the “Optical diameter / size of 90% by volume of the particles (smaller than)” value is given as “smaller than 3.3 μm”. Besides, in data set [3] (active in BDA-152a MDI), the “FPD, <6.4 μm (μg/act)” value is reported as 28.68 ± 0.61 μg/act; the “FPF, <6.4 μm (%)” value was 31 ± 1%; the “MMAD (μm)” value is listed as 4.36 ± 0.06 μm.
With `FCC(F)(F)F` [HFA-134a, 1,1,1,2-tetrafluoroethane], in data set [1], the “Liquid Density @ 20° C.” value is reported as 1.23 g/mL, the “Liquid Viscosity @ 20° C.” value is listed as 0.211 mPa · S, the “Surface Tension @ 20° C.” value is given as 8.09 mN/m and the “Vapor Pressure @ 20° C.” value was 570 kPa. Also, in data set [1], the “Latent Heat @ 25° C.” value is 177.7 kJ/kg and the “Latent Heat @ Boiling Point” value is 216.7 kJ/kg. Further, the “Water Solubility in Propellant” value in data set [1] (@25) is given as 1100@25 ppm.
For the compound `C[N+]1(C)CCC(OC(=O)C(O)(c2ccccc2)C2CCCC2)C1.[Br-]` (centres unmarked) [GP, Pyrrolidinium, 3-((cyclopentylhydroxyphenylacetyl)oxy)-1,1-dimethyl-, bromide], the “Optical diameter / size of 50% by volume of the particles (smaller than)” value in data set [2] was “smaller than 2.1 μm”. Further, the “Optical diameter / size of 90% by volume of the particles (smaller than)” value in data set [2] is “smaller than 5 μm”. In addition, the “FPD, <6.4 μm (μg/act)” value in data set [3] (setting [5]) came out at 3.69 ± 0.36 μg/act; in data set [3] (active in GFF-152a MDI), 3.56 ± 0.18 μg/act; in data set [4] (1 month 25° C./60% RH) it was 3.02 ± 0.08 μg/act; in data set [4] (1 month 40° C./75% RH), 3.18 ± 0.15 μg/act; in data set [4] (3 month 25° C./60% RH), 3.42 ± 0.08 μg/act; in data set [4] (3 month 40° C./75% RH), 3.62 ± 0.08 μg/act. In addition, the “FPD, <6.4 μm (μg/act)” value is 3.50 ± 0.07 μg/act in data set [4] (6 month 25° C./60% RH), 3.44 ± 0.27 μg/act in data set [4] (6 month 40° C./75% RH), 3.46 ± 0.05 μg/act in data set [4] (12 month 25° C./60% RH) and 3.18 ± 0.16 μg/act in data set [4] (Initial). Besides, the “FPF, <6.4 μm (%)” value in data set [3] (setting [5]) came out at 49 ± 3%; in data set [3] (active in GFF-152a MDI), 48 ± 1%; in data set [4] (1 month 25° C./60% RH), 45 ± 1%; in data set [4] (1 month 40° C./75% RH) it was 46 ± 1%; in data set [4] (3 month 25° C./60% RH) it was 49 ± 1%; in data set [4] (3 month 40° C./75% RH) it was 50 ± 1%. Moreover, the “FPF, <6.4 μm (%)” value in data set [4] (6 month 25° C./60% RH) is 50 ± 1%; in data set [4] (6 month 40° C./75% RH) it was 49 ± 2%; in data set [4] (12 month 25° C./60% RH), 48 ± 2%; in data set [4] (Initial), 47 ± 2%. For the same compound, the “MMAD (μm)” value in data set [3] (active in GFF-152a MDI) turned out to be 3.43 ± 0.07 μm.
In the case of `CC(F)F` [HFC-152a, 1,1-Difluoroethane], in data set [1], the “Liquid Density @ 20° C.” value is reported as 0.91 g/mL, the “Liquid Viscosity @ 20° C.” value was 0.171 mPa · S, the “Surface Tension @ 20° C.” value was 10.4 mN/m and the “Vapor Pressure @ 20° C.” value was 510 kPa. Moreover, in data set [1], the “Latent Heat @ 25° C.” value was 279.1 kJ/kg and the “Latent Heat @ Boiling Point” value is recorded as 318.4 kJ/kg. Besides, in data set [1] (@25), the “Water Solubility in Propellant” value is 2100@25 ppm.
Consider `FC=CC(F)(F)F` [HFO-1234ze], for which, in data set [1], the “Liquid Density @ 20° C.” value is listed as 1.18 g/mL, the “Liquid Viscosity @ 20° C.” value is reported as 0.206 mPa · S, the “Surface Tension @ 20° C.” value is on record as 8.9 mN/m and the “Vapor Pressure @ 20° C.” value is 427 kPa. Also, in data set [1], the “Latent Heat @ 25° C.” value is 166.8 kJ/kg and the “Latent Heat @ Boiling Point” value is given as 195.43 kJ/kg. Besides, the “Water Solubility in Propellant” value in data set [1] (@20) was 225@20 ppm.
`COc1ccc(CC(C)NCC(O)c2ccc(O)c(NC=O)c2)cc1.O=C(O)/C=C/C(=O)O` (racemic) [FF, (±)-2-hydroxy-5-[(1RS)-1-hydroxy-2-[[(1RS)-2-(4-methoxyphenyl)-1-methylethyl]-amino]ethyl]formanilide fumarate]: in data set [2], the “Optical diameter / size of 50% by volume of the particles (smaller than)” value is “smaller than 1.6 μm” and the “Optical diameter / size of 90% by volume of the particles (smaller than)” value is reported as “smaller than 3.9 μm”.
Regarding `C=C(F)C(F)(F)F` [HFO-1234yf, 2,3,3,3-Tetrafluoropropene], in data set [1], the “Liquid Density @ 20° C.” value is on record as 1.11 g/mL, the “Liquid Viscosity @ 20° C.” value is given as 0.164 mPa · S, the “Surface Tension @ 20° C.” value is 6.8 mN/m and the “Vapor Pressure @ 20° C.” value is given as 592 kPa. For the same compound, in data set [1], the “Latent Heat @ 25° C.” value was 145.4 kJ/kg and the “Latent Heat @ Boiling Point” value is 180.5 kJ/kg. Further, the “Water Solubility in Propellant” value in data set [1] (@24) is on record as 200@24 ppm.

These data come from patent US20250057764A1, “COMPOSITIONS, METHODS AND SYSTEMS FOR AEROSOL DRUG DELIVERY” (ASTRAZENECA AB, priority 2021, published 2025).
